Converted amounts (≈) assume the structure as drawn. “And” between values parts separate entries of the source, which are not always exact repeats. Equal values may be shown once. Read-outs that look alike come from different tables or passages of the source.
Assays:
[1] = biological target: T1, M. tuberculosis alanine racemase (Mycobacterium tuberculosis, UniProt P9WQA9); assay: biochemical; conditions: 30-minute pre-incubation with inhibitor, triplicate
M. tuberculosis H37Rv [2] = assay: Antimicrobial susceptibility in BACTEC MGIT 960 system; assay type: cell-based, Mycobacterium tuberculosis; conditions: for Mtb: antimicrobial activity against M. tuberculosis / Mtb: antimicrobial activity against M. tuberculosis (supplement table): M. tuberculosis H37Rv, BACTEC, 50 and 100 µg/ml; for Growth inhibition of M. tuberculosis H37Rv in BACTEC culture tubes: final concentration of 50 and 100 µg/ml
M. tuberculosis H37Rv [3] = assay: Microbroth dilution MIC determination; assay type: cell-based, Mycobacterium tuberculosis; conditions: for MIC: M. tuberculosis H37Rv, microbroth dilution, 21 days, read-out: MIC against M. tuberculosis
HeLa cells = assay: Compound cytotoxicity, WST-1 Cell Proliferation Reagent; assay type: cell-based; conditions: for TC50, cytotoxicity in HeLa cells: 48 hours exposure, WST-1
Method: HeLa cells were grown to confluence overnight (37°C, 5% CO2) in Dulbecco's Modified Eagle Medium with 10% fetal bovine serum (Invitrogen, Carlsbad, CA). The following day, 3000 cells were plated into each well of a 96-well plate and grown overnight. Compounds were diluted in culture medium and added to the cells to yield final concentrations of 100, 50, 25, 12.5, and 6.25 µg/ml. The cells were exposed to the compounds for 48 hours, after which the effect on cells was determined using the WST-1 Cell Proliferation Reagent (Roche Applied Science, Indianapolis, IN) according to manufacturer's protocols. Absorbance at 450 nm was used to calculate percent cytotoxicity with respect to a DMSO solvent control. The results were fitted onto a sigmoidal dose-response curve using Prism software to calculate the TC50 (compound concentration that causes 50% cell death).

[4] = biological target: T1, M. tuberculosis alanine racemase; assay: biochemical; assay type: biochemical; conditions: D-alanine 0.5-2.5 mM, inhibitor 0.01 to 0.98 mM
[5] = biological target: T1, M. tuberculosis alanine racemase; assay type: binding; conditions: 4 µM alanine racemase with 1 mM inhibitor
Method: Electrospray ionization mass spectrometry (ESMS) was performed to detect direct interactions of inhibitors with enzyme. A mixture of 15 µl of sample (4 µM alanine racemase with 1 mM inhibitors) was diluted with 15 µl 2% acetonitrile/0.1% formic acid. Samples were then de-salted using C4 ZipTip, eluted into 15 µl 60% acetonitrile/0.1% formic acid, and directly injected into Qtof-micro MS instrument (Waters Corp., Milford, MA).

[6] = Mycobacterium tuberculosis, 504 h

T1 sequence (P9WQA9 whole entry): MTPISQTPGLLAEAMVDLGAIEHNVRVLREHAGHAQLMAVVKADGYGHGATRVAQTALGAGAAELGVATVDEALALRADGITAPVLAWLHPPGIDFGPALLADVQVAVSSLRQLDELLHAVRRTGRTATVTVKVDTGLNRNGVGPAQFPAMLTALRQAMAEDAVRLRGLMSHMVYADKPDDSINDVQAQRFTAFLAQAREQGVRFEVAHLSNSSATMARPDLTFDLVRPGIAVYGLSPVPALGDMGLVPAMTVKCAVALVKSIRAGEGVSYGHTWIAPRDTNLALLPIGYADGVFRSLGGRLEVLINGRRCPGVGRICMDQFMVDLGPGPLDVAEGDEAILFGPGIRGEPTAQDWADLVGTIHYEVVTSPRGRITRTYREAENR

Row | Compound | IC50 [1] | Mtb: antimicrobial activity against M. tuberculosis (M. tuberculosis H37Rv [2]) | Mtb: antimicrobial activity against M. tuberculosis (supplement table) (M. tuberculosis H37Rv [2]) | Growth inhibition of M. tuberculosis H37Rv in BACTEC culture tubes (M. tuberculosis H37Rv [2]) | MIC (M. tuberculosis H37Rv [3]) | TC50, cytotoxicity in HeLa cells (HeLa cells) | Ki [4] | Nature of inhibitor-enzyme interaction by ESMS [5] | MIC (M. tuberculosis H37Rv [3]; [6]) | Increase in the MIC in the presence of D-alanine (M. tuberculosis H37Rv [3]; 5 mM D-alanine in the growth medium, data not shown) | Cytotoxicity relative to MIC (HeLa cells; compared with MIC against M. tuberculosis)
1 | 2-(hydoxyimino)-6-methyl-2H-benzopyran-3-carboxamide [L2-14] | 2.8 µM | − | - |  |  |  |  |  |  |  | 
2 | O=C(O)CSC(=S)Nc1cccnc1 [L2-11, 2-(pyridin-3-ylcarbamothioylsulfanyl)acetic acid] | 13.1 µM | − | - |  |  |  |  |  |  |  | 
3 | COC(=O)c1cccc(C(=O)Oc2ccc(OC(=O)c3cccc(C(=O)OC)n3)c(Cl)c2)n1 [L2-10, 6-O-[3-chloro-4-(6-methoxycarbonylpyridine-2-carbonyl)oxyphenyl]2-O-methyl pyridine-2,6-dicarboxylate] | 1 µM | + | + | inhibited growth at both concentrations | 13.6 µM (≈ 6.4 µg/mL) | 157.2 µM | 680 µM | not definitive |  |  | 
4 | COc1ccc(NC(=O)c2nc(S(C)(=O)=O)ncc2Cl)cc1Cl [L2-06, 5-chloro-N-(3-chloro-4-methoxyphenyl)2(methylsulfonyl)pyrimidine-4carboxamide] | 8.2 µM | + | + | inhibited growth at both concentrations |  | 18.8 µM | 760 µM | irreversible | < 4.5 µM |  | 
5 | Cc1ccc(S(=O)(=O)NN(C)C)cc1 [L2-01, N′,N′,4-trimethylbenzenesulfonohydrazide] | 9 µM | − | - |  |  |  |  |  |  |  | 
6 | S=C(Cc1ccccc1)N1CCCCC1 [L2-12, 2-phenyl-1-piperidin-1-ylethanethione] | 6 µM | + | + | inhibited growth at both concentrations |  | 406 µM | 80 µM | irreversible | 28.6 µM (≈ 6.27 µg/mL) |  | 
7 | O=C(c1cccs1)c1no[n+]([O-])c1C(=O)c1cccs1 [L2-18, 1,1′-(2-oxido-1,2,5-oxadiazole-3,4-diyl)-bis (1-(2-thienyl))-methanone] | 4.9 µM | − | - |  |  |  |  |  |  |  | 
8 | O=C(COc1ccccc1O)NO [L2-03, N-hydroxy-2-(2-hydroxyphenoxy)acetamide] | 8.2 µM | − | - |  |  |  |  |  |  |  | 
9 | CNC(=O)COc1ccccc1O [L2-15, 2-(2-hydroxyphenoxy)-N-methylacetamide] | 5.7 µM | − | - |  |  |  |  |  |  |  | 
10 | N[C@@H]1CONC1=O [CS, (4R)-4-amino-3-isoxazolidinone, reference compound] |  | + | + |  |  | 203 µM |  | irreversible modification of the enzyme | 6.5 µg/mL and 65 µM | 3 fold | 
11 | CCOC(=O)CCSc1ccccn1 [L2-04, ethyl 3-(pyridin-2-ylthio)propanoate] | 2.6 µM | + | + | inhibited growth at both concentrations |  | 229.8 µM | 38 µM | reversible | 59 µM (≈ 12.5 µg/mL) |  | 
12 | O=C1Nc2ccccc2C(=O)C1(O)O [L2-16, 3,3-dihydroxy-1H-quinoline-2,4-dione] | 5.2 µM | + | + | inhibited growth at both concentrations |  | 33.7 µM | 20 µM | reversible | 32.4 µM (≈ 6.26 µg/mL) |  | cytotoxic at slightly above its MIC
13 | COc1ccc(CC(=S)N2CCOCC2)cc1 [L2-09, 2-(4-methoxyphenyl)-1-morpholin-4-ylethanethione] | 3.3 µM | − | - |  |  |  |  |  |  |  | 
14 | CCOc1ccc(CCNC(=O)Cn2sc3nc(C)cc(C)c3c2=O)cc1 [L2-13, 2-(4,6-dimethyl-3-oxo-[1], [2]thiazolo[5,4-b]pyridin-2-yl)-N-[2-(4-ethoxyphenyl)ethyl]acetamide] | 7.7 µM | + | + | inhibited growth at both concentrations | 16.2 µM (≈ 6.24 µg/mL) | 36.4 µM | 930 µM | irreversible |  |  | 
15 | CN(C)NS(=O)(=O)c1ccc2c(c1)Cc1cc(S(=O)(=O)NN(C)C)ccc1-2 [L2-02, 2-N′,2-N′,7-N′,7-N′-tetramethyl-9H-fluorene-2,7-disulfonohydrazide] | 1.6 µM | − | - |  |  |  |  |  |  |  | 
16 | Cc1ccc(CC(=S)N2CCOCC2)cc1 [L2-07, 2-(4-methylphenyl)-1-morpholin-4-ylethanethione] | 6.5 µM | − | - |  |  |  |  |  |  |  | 
17 | CS(=O)(=O)c1ncc(Cl)c(C(=O)NCc2ccccc2)n1 [L2-05, N-benzyl-5-chloro-2-methylsulfonylpyrimidine-4-carboxamide] | 6.8 µM | + | + | inhibited growth at both concentrations |  | 20 µM | 630 µM | irreversible | 9 µM (≈ 2.93 µg/mL) |  | 
